Assays:
[1] = target: T1, BRD4 Bromodomain 1 (BRD4 BD1) (Homo sapiens, UniProt O60885); assay: AlphaScreen binding assay, BRD4 BD1; conditions: His-tagged BRD4 BD1 50 nM, biotinylated H4 (1-21) K5/8/12/16 tetra-acetylated peptide 50 nM, compounds listed under IC50 range headings
T1 construct: 44-168 and BRD4 BD2
How it was run: (§1)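 An AlphaScreen competition format was used with His-BRD4 BD1 or BD2 and biotin-H4 K5/8/12/16-acetyl peptide, each at matched final levels of 50 nM (BD1) or 100 nM (BD2). Incubation in HEPES/NaCl buffer with 0.1% BSA and 0.01% Triton X-100 ran ≥1 h before IC50 determination.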

[2] = target: T2, BRD4 Bromodomain 2 (BRD4 BD2) (Homo sapiens, UniProt O60885); assay: AlphaScreen binding assay, BRD4 BD2; conditions: His-tagged BRD4 BD2 100 nM, biotinylated H4 (1-21) K5/8/12/16 tetra-acetylated peptide 100 nM, compounds listed under IC50 range headings
T2 construct: 333-460 were cloned, expressed, and purified to homogeneity
How it was run: as §1

[3] = system: acute myelocytic leukemia (AML) cell line MV4-11; assay: Oncology cell growth assay (3-day proliferation, CellTiter-Glo); type: cell-based; conditions: Homo sapiens, MV4-11, 72 h, MV4-11 cells, 3000 cells/well, compounds listed under IC50 range headings, read-out: MV411 IC50 (gIC50, inhibition of proliferation)
How it was run: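 MV4-11 AML cells (RPMI 1640, 10% FBS) plated at 3000 cells/well and exposed 72 h to compound at final 10 to 0.0045 μM (3-fold series). Viability read by CellTiter-Glo luminescence; gIC50 from four-parameter logistic fit between DMSO control and no-cell background.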

| SMILES | IC50 [1] [µM] | IC50 [2] [µM] | IC50 [3] [µM] |
| --- | --- | --- | --- |
| CCCOc1c(-c2nc3ccccc3s2)ccc2c1CC[C@H](C)N2C(C)=O [I-120, (S)-1-(6-(benzo[d]thiazol-2-yl)-2-methyl-5-propoxy-3,4-dihydroquinolin-1(2H)-yl)ethanone] | 1 to 10 | ≥ 0.5 | > 1 |
| CCCOc1c(-c2nc3ccccc3[nH]2)ccc2c1CC[C@H](C)N2C(C)=O [I-121, (S)-1-(6-(1H-benzo[d]imidazol-2-yl)-2-methyl-5-propoxy-3,4-dihydroquinolin-1(2H)-yl)ethanone] | 1 to 10 | 0.05 to 0.5 | 0.5 to 1 |
| COC(=O)N1c2ccc(-c3cnn(C4CCNCC4)c3)c(Oc3ccc(Cl)cc3C#N)c2CC[C@@H]1C [I-132, (S)-methyl 5-(4-chloro-2-cyanophenoxy)-2-methyl-6-(1-(piperidin-4-yl)-1H-pyrazol-4-yl)-3,4-dihydroquinoline-1(2H)-carboxylate] | 0.1 to 1 | < 0.05 | < 0.5 |
| COC(=O)N1c2ccc(-c3cnn(C4CCNCC4)c3)c(Oc3ccc(F)cc3C#N)c2CC[C@@H]1C [I-133, (S)-methyl 5-(2-cyano-4-fluorophenoxy)-2-methyl-6-(1-(piperidin-4-yl)-1H-pyrazol-4-yl)-3,4-dihydroquinoline-1(2H)-carboxylate] | 0.1 to 1 | < 0.05 | < 0.5 |
| COC(=O)N1c2ccc(-c3cnn(C4CCNCC4)c3)c(Oc3ccc(C#N)cc3Cl)c2CC[C@@H]1C [I-134, (S)-methyl 5-(2-chloro-4-cyanophenoxy)-2-methyl-6-(1-(piperidin-4-yl)-1H-pyrazol-4-yl)-3,4-dihydroquinoline-1(2H)-carboxylate] | 0.1 to 1 | < 0.05 | < 0.5 |
| COC(=O)N1c2ccc(-c3cnn(C4CCNCC4)c3)c(Oc3ccc(C#N)cc3F)c2CC[C@@H]1C [I-135, (S)-methyl 5-(4-cyano-2-fluorophenoxy)-2-methyl-6-(1-(piperidin-4-yl)-1H-pyrazol-4-yl)-3,4-dihydroquinoline-1(2H)-carboxylate] | 0.1 to 1 | < 0.05 | < 0.5 |
| CC(=O)N1c2ccc(-c3cnn(C4CCNCC4)c3)c(Oc3ccccc3C#N)c2CC[C@@H]1C [I-136, (S)-2-(1-acetyl-2-methyl-6-(1-(piperidin-4-yl)-1H-pyrazol-4-yl)-1,2,3,4-tetrahydroquinolin-5-yloxy)benzonitrile] | 0.1 to 1 | < 0.05 | < 0.5 |
| COC(=O)N1c2ccc(-c3cnn(C4CCNCC4)c3)c(Oc3ccccc3C#N)c2CC[C@@H]1C [I-137, methyl (S)-5-(2-cyanophenoxy)-2-methyl-6-(1-(piperidin-4-yl)-1H-pyrazol-4-yl)-3,4-dihydroquinoline-1(2H)-carboxylate] | 0.1 to 1 | < 0.05 | < 0.5 |
| COC(=O)N1c2ccc(-c3cnn(C4CNC4)c3)c(Oc3ccccc3C#N)c2CC[C@@H]1C [I-138, (S)-methyl 6-(1-(azetidin-3-yl)-1H-pyrazol-4-yl)-5-(2-cyanophenoxy)-2-methyl-3,4-dihydroquinoline-1(2H)-carboxylate] | 0.1 to 1 | < 0.05 | < 0.5 |
| COC(=O)N1c2ccc(-c3cnn(C4CNC4)c3)c(Oc3cccc(F)c3C#N)c2CC[C@@H]1C [I-139, (S)-methyl 6-(1-(azetidin-3-yl)-1H-pyrazol-4-yl)-5-(2-cyano-3-fluorophenoxy)-2-methyl-3,4-dihydroquinoline-1(2H)-carboxylate] | 0.1 to 1 | < 0.05 | < 0.5 |
| CC(=O)N1c2ccc(-c3cnn(C4CCNCC4)c3)c(Oc3ccc(C#N)cc3)c2CC[C@@H]1C [I-140, (S)-4-(1-acetyl-2-methyl-6-(1-(piperidin-4-yl)-1H-pyrazol-4-yl)-1,2,3,4-tetrahydroquinolin-5-yloxy)benzonitrile] | 0.1 to 1 | < 0.05 | < 0.5 |
| CC(=O)N1c2ccc(-c3cnn(C4CCNCC4)c3)c(Oc3ncccc3C(F)(F)F)c2CC[C@@H]1C [I-141, (S)-1-(2-methyl-6-(1-(piperidin-4-yl)-1H-pyrazol-4-yl)-5-(3-(trifluoromethyl)pyridin-2-yloxy)-3,4-dihydroquinolin-1(2H)-yl)ethanone] | 0.1 to 1 | < 0.05 | < 0.5 |
| CC(=O)N1c2ccc(-c3cnn(C4CCNCC4)c3)c(Oc3ncccc3Cl)c2CC[C@@H]1C [I-142, (S)-1-(5-(3-chloropyridin-2-yloxy)-2-methyl-6-(1-(piperidin-4-yl)-1H-pyrazol-4-yl)-3,4-dihydroquinolin-1 (2H)-yl)ethanone] | 0.1 to 1 | 0.05 to 0.5 | < 0.5 |
| CC(=O)N1c2ccc(-c3cnn(C4CCNCC4)c3)c(Oc3ncccc3C#N)c2CC[C@@H]1C [I-143, (S)-2-(1-acetyl-2-methyl-6-(1-(piperidin-4-yl)-1H-pyrazol-4-yl)-1,2,3,4-tetrahydroquinolin-5-yloxy)nicotinonitrile] | 0.1 to 1 | 0.05 to 0.5 | < 0.5 |
| CC(=O)N1c2ccc(-c3cnn(C4CCNCC4)c3)c(Oc3ncc(C)cn3)c2CC[C@@H]1C [I-144, (S)-1-(2-methyl-5-(5-methylpyrimidin-2-yloxy)-6-(1-(piperidin-4-yl)-1H-pyrazol-4-yl)-3,4-dihydroquinolin-1 (2H)-yl)ethanone] | 0.1 to 1 | < 0.05 | < 0.5 |
| CC(=O)N1c2ccc(-c3cnn(C4CCNCC4)c3)c(Oc3cnccn3)c2CC[C@@H]1C [I-145, (S)-1-(2-methyl-6-(1-(piperidin-4-yl)-1H-pyrazol-4-yl)-5-(pyrazin-2-yloxy)-3,4-dihydroquinolin-1(2H)-yl)ethanone] | 0.1 to 1 | < 0.05 | < 0.5 |
| COC(=O)N1c2ccc(-c3cnn(C4CCNCC4)c3)c(Oc3ccc(C#N)cc3)c2CC[C@@H]1C [I-146, (S)-methyl 5-(4-cyanophenoxy)-2-methyl-6-(1-(piperidin-4-yl)-1H-pyrazol-4-yl)-3,4-dihydroquinoline-1(2H)-carboxylate] | 0.1 to 1 | 0.05 to 0.5 | < 0.5 |
| COC(=O)N1c2ccc(-c3cnn(C4CCNCC4)c3)c(Oc3ncccc3C#N)c2CC[C@@H]1C [I-147, (S)-methyl 5-(3-cyanopyridin-2-yloxy)-2-methyl-6-(1-(piperidin-4-yl)-1H-pyrazol-4-yl)-3,4-dihydroquinoline-1(2H)-carboxylate] | 1 to 10 | 0.05 to 0.5 | < 0.5 |
| COC(=O)N1c2ccc(-c3cnn(C4CCNCC4)c3)c(Oc3cccc(F)c3C#N)c2CC[C@@H]1C [I-148, (S)-methyl 5-(2-cyano-3-fluorophenoxy)-2-methyl-6-(1-(piperidin-4-yl)-1H-pyrazol-4-yl)-3,4-dihydroquinoline-1(2H)-carboxylate] | 0.1 to 1 | < 0.05 | < 0.5 |
| COC(=O)N1c2ccc(-c3cnn(C4CCNCC4)c3)c(Oc3cccc(Cl)c3C#N)c2CC[C@@H]1C [I-149, (S)-methyl 5-(3-chloro-2-cyanophenoxy)-2-methyl-6-(1-(piperidin-4-yl)-1H-pyrazol-4-yl)-3,4-dihydroquinoline-1(2H)-carboxylate] | 0.1 to 1 | < 0.05 | < 0.5 |
| C[C@H]1CCc2c(ccc(-c3cnn(C4CCNCC4)c3)c2Oc2ccccc2C#N)N1C(=O)C1CC1 [I-150, (S)-2-(1-(cyclopropanecarbonyl)-2-methyl-6-(1-(piperidin-4-yl)-1H-pyrazol-4-yl)-1,2,3,4-tetrahydroquinolin-5-yloxy)benzonitrile] | 0.1 to 1 | < 0.05 | < 0.5 |
| C[C@H]1CCc2c(ccc(-c3cnn(C4CCNCC4)c3)c2Oc2cccc(F)c2C#N)N1C(=O)C1CC1 [I-151, (S)-2-(1-(cyclopropanecarbonyl)-2-methyl-6-(1-(piperidin-4-yl)-1H-pyrazol-4-yl)-1,2,3,4-tetrahydroquinolin-5-yloxy)-6-fluorobenzonitrile] | 0.1 to 1 | < 0.05 | < 0.5 |
| C[C@H]1CCc2c(ccc(-c3cnn(C4CCNCC4)c3)c2Oc2ccc(C#N)cc2F)N1C(=O)C1CC1 [I-152, (S)-4-(1-(cyclopropanecarbonyl)-2-methyl-6-(1-(piperidin-4-yl)-1H-pyrazol-4-yl)-1,2,3,4-tetrahydroquinolin-5-yloxy)-3-fluorobenzonitrile] | 0.1 to 1 | < 0.05 | < 0.5 |
| CC(=O)N1c2ccc(-c3cnn(C4CC4)c3)c(Oc3ccccc3C#N)c2CC[C@@H]1C [I-153, (S)-2-(1-acetyl-6-(1-cyclopropyl-1H-pyrazol-4-yl)-2-methyl-1,2,3,4-tetrahydroquinolin-5-yloxy)benzonitrile] | 0.1 to 1 | < 0.05 | < 0.5 |
| CC(=O)N1c2ccc(-c3cnn(C4CCNCC4)c3)c(Oc3ccc(C(N)=O)cc3)c2CC[C@@H]1C [I-155, (S)-4-(1-acetyl-2-methyl-6-(1-(piperidin-4-yl)-1H-pyrazol-4-yl)-1,2,3,4-tetrahydroquinolin-5-yloxy)benzamide] | 0.1 to 1 | 0.05 to 0.5 | > 1 |

— patent US10611750B2, “Tetrahydroquinoline compositions as bet bromodomain inhibitors” (FORMA Therapeutics, Inc., priority 2013, dated 2020)
